Test results taken from patent publication US7094428B2, “Hemostatic compositions, devices and methods” (The University of Medicine and Dentistry of New Jersey, priority 2000, dated 2006).

Tests used:
[1] = test system: recalcified, citrated whole blood; experiment: SONOCLOT clotting time of recalcified, citrated whole blood; format: biochemical
Procedure: In such studies, anti-coagulated, citrated whole blood is recalcified to initiate the clotting process in a device which sensitively monitors the formation of the clot. Studies have been expanded from whole blood to include plasma.
(§1) Results were expressed as clotting time in seconds. […] Results are expressed as mean±standard deviation.
(§2) Silver (I) ion was provided as silver nitrate, 5% stock solution. It was diluted 100 fold to 0.05%, or in some cases to 0.01% in the clotting studies. In perfusion studies, a 10 μl aliquot of the solution was applied to the filter paper then dried.
Collagen was from Sigma Chemical Co. […] Heparinase was from Haemoscope Corp. and used at a final concentration of 1 U/mL.

[2] = test system: citrated blood anticoagulated with heparin; experiment: SONOCLOT clotting (recalcification) time of heparinized citrated blood; format: biochemical
Procedure: as §1, §2
Collagen was from Sigma Chemical Co. In the clotting time studies, the final concentration of collagen was 0.1-0.2%. Heparinase was from Haemoscope Corp. and used at a final concentration of 1 U/mL.
Recalcification time was measured.

[3] = test system: recalcified, citrated whole blood; experiment: Blood perfusion (spread of blood disk) on filter paper impregnated with the composition
Procedure: as §1, §2
The size of the blood disk on the paper was measured.

[4] = test system: Platelet Poor Plasma (PPP); conditions: 2.9 mM AgNO3, n = 8
Procedure: (§3) The hemostatic compositions of the invention were evaluated in two different systems. In one system, clotting time of recalcified, citrated whole blood in the presence of the hemostatic composition was determined using a SONOCLOT Coagulation Analyzer (Sienco Inc., Wheat Ridge Colo.). […] Results were expressed as clotting time in seconds. In a second system, the hemostatic composition was dried on a cellulose matrix (filter paper), and 7 μl aliquot of fresh blood or recalcified citrated whole blood was placed in the cellulose matrix; resulting in the spreading (perfusion) of the applied blood as an enlarging disk. Upon clotting or reduced perfusion, the further spread of the blood ceases. The surface area of the spread blood in mm^2 is used as an indication of the clotting rate of the blood. Results are expressed as mean±standard deviation. The number of samples run is indicated at the top of each data column.
(§4) This study was undertaken using platelet-rich and platelet-poor plasma to simulate an individual with normal and reduced platelet levels.

[5] = test system: Platelet Rich Plasma (PRP); conditions: 2.9 mM AgNO3, n = 8
Procedure: as §3, §4

[6] = final concentration in blood: 1% collagen, 0.6 mM AgNO3 or the combination as labelled, n = 41
[7] = thrombin 0.025 U/mL final, silver ion 2.9 mM final, n = 8
[8] = Study I, filter paper impregnated with 5% AgNO3, 2% collagen or the combination as labelled, n = 13
[9] = Study II, filter paper impregnated with 5% AgNO3, 2% collagen or the combination as labelled, n = 5

O=[N+]([O-])[O-].[Ag+] [silver(I), silver nitrate]
Clotting time [1, 6]: 220 ± 50 s | clot strength, SONOCLOT tracing ([1]; non-heparinized blood): the clot is stronger | Clotting time ([1]; non-heparinized blood, without silver 217 seconds): 81 s | Clotting time ([1]; normal blood, 2.9 mM AgNO3, n = 8): 109 ± 20 s | Clotting time ([1]; recalcified citrated whole blood, heparin not given, silver nitrate 0.05% (in some cases 0.01%), heparinase 1 U/mL, n = 5): 94 ± 35 s | clot strength, SONOCLOT tracing ([1]; second study): stronger clot | Clotting time ([1]; second study, without silver 588 seconds): 168 s | Clotting time [1, 7]: 91 ± 14 s | clotting time (FIG. 4, C and D) ([2]; 0.25 U/ml heparin, 0.05% or 0.3% silver (I) ion, absence of collagen): prolonged clotting time | Clotting time ([2]; heparinized blood, without silver 1930 seconds): 872 s | physical characteristics of the clot (clot strength), SONOCLOT tracing ([2]; heparinized whole blood): stronger clot | Perfusion [3, 8]: 18 ± 4 mm | Perfusion ([3]; Study II, filter paper impregnated with 1% AgNO3, n = 5): 42 ± 18 mm | Perfusion [3, 9]: 17 ± 2 mm | Clotting time [4]: 128 ± 32 s | Clotting time [5]: 83 ± 29 s

collagen
Clotting time [1, 6]: 264 ± 37 s | Perfusion [3, 8]: 35 ± 23 mm | Perfusion [3, 9]: 28 ± 10 mm

heparin [reference compound]
Clotting time ([2]; citrated blood with heparin 2 U/mL, recalcified, silver nitrate 0.05% (in some cases 0.01%), heparinase 1 U/mL, n = 5): 1930 ± 83 s

thrombin
Clotting time [1, 7]: 156 ± 42 s
